Where two headings read alike, the source gives them in different places.
Experiments:
[1] = target: T1, full-length beta-Catenin (Uniprot ID P35222) (Homo sapiens, UniProt P35222); test: Fluorescence polarization IC50 (beta-catenin / 5FAM-TCF4 10-53 competition); type: binding
T1 construct: 10 nM full-length beta-Catenin (Uniprot ID P35222)
T1 sequence (P35222 1-781): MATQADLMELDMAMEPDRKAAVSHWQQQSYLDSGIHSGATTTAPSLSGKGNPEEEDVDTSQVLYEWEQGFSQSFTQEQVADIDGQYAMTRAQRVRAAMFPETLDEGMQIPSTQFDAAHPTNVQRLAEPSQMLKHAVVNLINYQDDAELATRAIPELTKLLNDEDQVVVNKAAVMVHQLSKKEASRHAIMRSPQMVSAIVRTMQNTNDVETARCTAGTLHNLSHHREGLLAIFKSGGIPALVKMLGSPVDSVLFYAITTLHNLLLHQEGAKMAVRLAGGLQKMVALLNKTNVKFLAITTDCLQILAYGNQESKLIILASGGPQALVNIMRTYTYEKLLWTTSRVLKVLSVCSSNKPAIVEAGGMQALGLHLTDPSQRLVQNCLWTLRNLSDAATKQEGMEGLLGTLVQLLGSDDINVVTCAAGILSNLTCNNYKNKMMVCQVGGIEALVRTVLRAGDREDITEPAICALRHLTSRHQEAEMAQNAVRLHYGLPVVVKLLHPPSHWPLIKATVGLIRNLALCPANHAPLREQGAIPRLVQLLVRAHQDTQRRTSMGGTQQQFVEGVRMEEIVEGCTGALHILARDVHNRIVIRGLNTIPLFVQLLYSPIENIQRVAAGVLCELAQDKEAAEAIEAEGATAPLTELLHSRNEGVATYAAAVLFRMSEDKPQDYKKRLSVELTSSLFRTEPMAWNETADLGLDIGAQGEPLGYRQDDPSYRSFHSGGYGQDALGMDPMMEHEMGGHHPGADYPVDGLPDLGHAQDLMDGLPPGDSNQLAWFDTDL

CHI Log D procedure = type: physicochemical; details: for chromatographic logD: pH 7.4, CHI Log D; for CHI Log D: pH 7.4
[2] = target: T2, beta-catenin/TCF4 engagement (Homo sapiens, UniProt P35222); test: Nano-BRET target engagement assay (B-cat-Halo & TCF4-Luc in HEK293 cells); type: cell-based
T2 construct: expressed in transfected cells; host or cells: HEK293
T2 sequence (P35222 1-781): T1 sequence (P35222 1-781)

[3] = absolute IC50, read-out: NanoBRET Abs IC50
[4] = fluorescence polarization, beta-catenin, read-out: FP EC50

Row | SMILES | IC50 ([1]; read-out: beta-Catenin FP IC50) | chromatographic logD (CHI Log D procedure) | IC50 [2, 3] | IC50 ([2]; read-out: NanoBRET IC50) | IC50 ([2]; read-out: NanoBRET Abs IC50) | IC50 [1, 4] | CHI Log D (CHI Log D procedure)
1 | CC(=O)N1CCC[C@]12CC=CCCCC1(CCCC=CCCCOC(=O)N3CC[C@@](C(=O)N[C@@H](Cc4ccsc4)C(=O)N[C@@H](Cc4csc5ccccc45)C(=O)N[C@@H](CCC(N)=O)C(N)=O)(C3)NC(=O)[C@H](Cc3ccccc3)NC(=O)[C@H](Cc3ccccc3)NC(=O)[C@H](C)NC(=O)[C@H](C)NC(=O)[C@H](CN(CC(=O)O)CC(F)(F)F)NC(=O)[C@H](CC(=O)O)NC1=O)NC(=O)[C@H](CC(C)(C)C)NC(=O)[C@H](CC(=O)O)NC2=O (stereo partly drawn) [I-848, Ac-PL3-Asp-Npg-B5-Asp-TfeGA-Ala-Ala-Phe-Phe-PyrS2-3Thi-BztA-Gln-NH2] | 13 nM | 2.46 | 7 µM |  |  |  | 
2 | CC(=O)N1CCC[C@]12CC=CCCCC1(CCCC=CCCCOC(=O)N3CC[C@@](C(=O)N[C@@H](Cc4ccsc4)C(=O)N[C@@H](Cc4csc5ccccc45)C(=O)N[C@@H](CCC(N)=O)C(N)=O)(C3)NC(=O)[C@H](Cc3ccccc3)NC(=O)[C@H](Cc3ccccc3)NC(=O)[C@H](C)NC(=O)[C@H](C)NC(=O)[C@H](Cc3ccc(C(=O)O)cc3)NC(=O)[C@H](CC(=O)O)NC1=O)NC(=O)[C@H](CC(C)(C)C)NC(=O)[C@H](CC(=O)O)NC2=O (stereo partly drawn) [I-850, Ac-PL3-Asp-Npg-B5-Asp-4COOHF-Ala-Ala-Phe-Phe-PyrS2-3Thi-BztA-Gln-NH2] | 26 nM | 2.26 | 16.4 µM |  |  |  | 
3 | CC(=O)N1CCC[C@]12CC=CCCCC1(CCCC=CCCCOC(=O)N3CC[C@@](C(=O)N[C@@H](Cc4ccsc4)C(=O)N[C@@H](Cc4csc5ccccc45)C(=O)N[C@@H](CCC(N)=O)C(N)=O)(C3)NC(=O)[C@H](CC(C)C)NC(=O)[C@H](Cc3ccccc3)NC(=O)[C@H](C)NC(=O)[C@H](C)NC(=O)[C@H](Cc3ccc(C(=O)O)cc3)NC(=O)[C@H](CC(=O)O)NC1=O)NC(=O)[C@H](CC(C)(C)C)NC(=O)[C@H](CC(=O)O)NC2=O (stereo partly drawn) [I-851, Ac-PL3-Asp-Npg-B5-Asp-4COOHF-Ala-Ala-Phe-Leu-PyrS2-3Thi-BztA-Gln-NH2] | 16 nM | 2.15 | 7.6 µM |  |  |  | 
4 | CC(=O)N1CCC[C@]12CC=CCCCC1(CCCC=CCCCOC(=O)N3CC[C@@](C(=O)N[C@@H](Cc4ccsc4)C(=O)N[C@@H](Cc4csc5ccccc45)C(=O)N[C@@H](CCC(N)=O)C(N)=O)(C3)NC(=O)[C@H](CC(C)C)NC(=O)[C@H](Cc3ccccc3)NC(=O)[C@H](C)NC(=O)[C@H](C)NC(=O)[C@H](Cc3ccccc3C(=O)O)NC(=O)[C@H](CC(=O)O)NC1=O)NC(=O)[C@H](CC(C)(C)C)NC(=O)[C@H](CC(=O)O)NC2=O (stereo partly drawn) [I-854, Ac-PL3-Asp-Npg-B5-Asp-2COOHF-Ala-Ala-Phe-Leu-PyrS2-3Thi-BztA-Gln-NH2] | 8 nM | 2.48 | 3.6 µM | 4.6 µM |  |  | 
5 | CC(=O)N1CCC[C@]12CC=CCCCC1(CCCC=CCCCOC(=O)N3CC[C@@](C(=O)N[C@@H](Cc4ccsc4)C(=O)N[C@@H](Cc4csc5ccccc45)C(=O)N[C@@H](CCC(N)=O)C(N)=O)(C3)NC(=O)[C@H](CC(C)C)NC(=O)[C@H](Cc3ccccc3)NC(=O)[C@H](C)NC(=O)[C@H](C)NC(=O)[C@H](CC(N)=O)NC(=O)[C@H](CC(=O)O)NC1=O)NC(=O)[C@H](CC(C)(C)C)NC(=O)[C@H](CC(=O)O)NC2=O (stereo partly drawn) [I-856, Ac-PL3-Asp-Npg-B5-Asp-Asn-Ala-Ala-Phe-Leu-PyrS2-3Thi-BztA-Gln-NH2] | 17 nM | 2.45 |  |  | 6.8 µM |  | 
6 | CC(=O)N1CCC[C@]12CC=CCCCC1(CCCC=CCCCOC(=O)N3CC[C@@](C(=O)N[C@@H](Cc4ccsc4)C(=O)N[C@@H](Cc4csc5ccccc45)C(N)=O)(C3)NC(=O)[C@H](CC(N)=O)NC(=O)[C@H](Cc3ccccc3)NC(=O)[C@H](C)NC(=O)[C@H](C)NC(=O)[C@H]([C@@H](C)O)NC(=O)[C@H](CC(=O)O)NC1=O)NC(=O)[C@H](CC(C)(C)C)NC(=O)[C@H](CC(=O)O)NC2=O (stereo partly drawn) [I-859, Ac-PL3-Asp-Npg-B5-Asp-Thr-Ala-Ala-Phe-Asn-PyrS2-3Thi-BztA-NH2] | 36 nM |  |  |  | > 20 µM | 36 nM | 2.711
7 | CC(=O)N1CCC[C@]12CC=CCCCC1(CCCC=CCCCOC(=O)N3CC[C@@](C(=O)N[C@@H](Cc4ccsc4)C(=O)N[C@@H](Cc4csc5ccccc45)C(=O)N[C@@H](CCC(N)=O)C(=O)NCCCCCCN)(C3)NC(=O)[C@H](CC(N)=O)NC(=O)[C@H](Cc3ccccc3)NC(=O)[C@H](C)NC(=O)[C@H](C)NC(=O)[C@H](CC(=O)O)NC(=O)[C@H](CC(=O)O)NC1=O)NC(=O)[C@H](CC(C)(C)C)NC(=O)[C@H](CC(=O)O)NC2=O (stereo partly drawn) [I-881, Ac-PL3-Asp-Npg-B5-Asp-Asp-Ala-Ala-Phe-Asn-PyrS2-3Thi-BztA-Gln-6AmHex] | 10 nM |  |  |  | 23.8 µM | 10 nM | −0.008
8 | CC(=O)N1CCC[C@]12CC=CCCCC1(CCCC=CCCCOC(=O)N3CC[C@@](C(=O)N[C@@H](Cc4ccsc4)C(=O)N[C@@H](Cc4csc5ccccc45)C(=O)N[C@@H](CCC(N)=O)C(=O)NCCCCCCN)(C3)NC(=O)[C@H](CC(N)=O)NC(=O)[C@H](Cc3ccccc3)NC(=O)[C@H](C)NC(=O)[C@H](C)NC(=O)[C@H](CC(=O)O)NC(=O)[C@H](CC(=O)O)NC1=O)NC(=O)[C@H](CC(C)(C)C)NC(=O)[C@H](CC(=O)O)NC2=O (stereo partly drawn) [I-882, Ac-PL3-Asp-Npg-B5-Asp-Asp-Ala-Ala-Phe-Asn-PyrS2-3Thi-BztA-Gln-6AmHex] | 22 nM |  |  | 22.5 µM | 41.4 µM | 22 nM | 2.028
9 | COCCOCCOCCOCCC(=O)NCCCC[C@@H]1NC(=O)[C@H](C)NC(=O)[C@H](CC(=O)O)NC(=O)[C@H](CC(=O)O)NC(=O)C2(CCCC=CCCCOC(=O)N3CC[C@@](C(=O)N[C@@H](Cc4ccsc4)C(=O)N[C@@H](Cc4csc5ccccc45)C(=O)N[C@@H](CCC(N)=O)C(N)=O)(C3)NC(=O)[C@H](CC(N)=O)NC(=O)[C@H](Cc3ccccc3)NC1=O)CCCC=CC[C@]1(CCCN1C(C)=O)C(=O)N[C@@H](CC(=O)O)C(=O)N[C@@H](CC(C)(C)C)C(=O)N2 (stereo partly drawn) [I-894, Ac-PL3-Asp-Npg-B5-Asp-Asp-Ala-[mPEG4]Lys-Phe-Asn-PyrS2-3Thi-BztA-Gln-NH2] | 15 nM | 1.45 |  |  | > 20 µM |  | 
10 | COCCOCCC(=O)NCCCC[C@H](NC(=O)[C@H](CCC(N)=O)NC(=O)[C@H](Cc1csc2ccccc12)NC(=O)[C@H](Cc1ccsc1)NC(=O)[C@]12CCN(C1)C(=O)OCCCC=CCCCC1(CCCC=CC[C@]3(CCCN3C(C)=O)C(=O)N[C@@H](CC(=O)O)C(=O)N[C@@H](CC(C)(C)C)C(=O)N1)C(=O)N[C@@H](CC(=O)O)C(=O)N[C@@H](CC(=O)O)C(=O)N[C@@H](C)C(=O)N[C@@H](C)C(=O)N[C@@H](Cc1ccccc1)C(=O)N[C@@H](CC(N)=O)C(=O)N2)C(N)=O (stereo partly drawn) [I-911, Ac-PL3-Asp-Npg-B5-Asp-Asp-Ala-Ala-Phe-Asn-PyrS2-3Thi-BztA-Gln-[mPEG2]Lys-NH2] | 12 nM | 1.82 |  |  | 22.9 µM |  | 
11 | CC(=O)N1CCC[C@]12CC=CCCCC1(CCCC=CCCCOC(=O)N3CC[C@@](C(=O)N[C@@H](Cc4ccccc4Cl)C(=O)N[C@@H](Cc4csc5ccccc45)C(=O)N[C@@H](CCC(N)=O)C(N)=O)(C3)NC(=O)[C@H](Cc3ccccc3)NC(=O)[C@H](Cc3ccccc3)NC(=O)[C@H](C)NC(=O)[C@H](C)NC(=O)[C@H](CN(CC(=O)O)CC(F)(F)F)NC(=O)[C@H](CC(=O)O)NC1=O)NC(=O)[C@H](CC(C)(C)C)NC(=O)[C@H](CC(=O)O)NC2=O (stereo partly drawn) [I-923, Ac-PL3-Asp-Npg-B5-Asp-TfeGA-Ala-Ala-Phe-Phe-PyrS2-2C1F-BztA-Gln-NH2] | 27 nM | 2.46 | 6 µM |  |  |  | 
12 | CC(=O)N1CCC[C@]12CC=CCCCC1(CCCC=CCCCOC(=O)N3CC[C@@](C(=O)N[C@@H](Cc4cccc(Cl)c4)C(=O)N[C@@H](Cc4csc5ccccc45)C(=O)N[C@@H](CCC(N)=O)C(N)=O)(C3)NC(=O)[C@H](CC(N)=O)NC(=O)[C@H](Cc3ccccc3)NC(=O)[C@H](C)NC(=O)[C@H](C)NC(=O)[C@H](CN(CC(=O)O)CC(F)(F)F)NC(=O)[C@H](CC(=O)O)NC1=O)NC(=O)[C@H](CC(C)(C)C)NC(=O)[C@H](CC(=O)O)NC2=O (stereo partly drawn) [I-925, Ac-PL3-Asp-Npg-B5-Asp-TfeGA-Ala-Ala-Phe-Asn-PyrS2-3C1F-BztA-Gln-NH2] | 21 nM |  |  |  | 20 µM | 21 nM | 2.344
